Experimental data as given in ChEMBL document CHEMBL4507272 (2021).

How the values were obtained:
[1] = biological target: Mast/stem cell growth factor receptor Kit (Homo sapiens) (UniProt P10721); conditions: Compound concentration 1000.0 nM
[2] = biological target: Serine/threonine-protein kinase 26 (Homo sapiens) (UniProt Q9P289); conditions: Compound concentration 1000.0 nM
[3] = biological target: Mitogen-activated protein kinase 3 (Homo sapiens) (UniProt P27361); conditions: Compound concentration 1000.0 nM
[4] = biological target: Ribosomal protein S6 kinase beta-1 (Homo sapiens) (UniProt P23443); conditions: Compound concentration 1000.0 nM
[5] = biological target: Dual specificity mitogen-activated protein kinase kinase 5 (Homo sapiens) (UniProt Q13163); conditions: Compound concentration 1000.0 nM
[6] = biological target: Tyrosine-protein kinase receptor Tie-1 (Homo sapiens) (UniProt P35590); conditions: Compound concentration 1000.0 nM
[7] = biological target: Phosphatidylinositol 4-phosphate 5-kinase type-1 alpha (Homo sapiens) (UniProt Q99755); conditions: Compound concentration 1000.0 nM
[8] = biological target: Inhibitor of nuclear factor kappa-B kinase subunit alpha (Homo sapiens) (UniProt O15111); conditions: Compound concentration 1000.0 nM
[9] = biological target: Mitogen-activated protein kinase 6 (Homo sapiens) (UniProt Q16659); conditions: Compound concentration 1000.0 nM
[10] = tested on: Phosphatidylinositol 4,5-bisphosphate 3-kinase catalytic subunit alpha isoform (Homo sapiens), P42336 [E545K]; conditions: Compound concentration 1000.0 nM
[11] = biological target: MAP kinase-activated protein kinase 2 (Homo sapiens) (UniProt P49137); conditions: Compound concentration 1000.0 nM
[12] = biological target: Serine/threonine-protein kinase PAK 1 (Homo sapiens) (UniProt Q13153); conditions: Compound concentration 1000.0 nM
[13] = biological target: cGMP-dependent protein kinase 1 (Homo sapiens) (UniProt Q13976); conditions: Compound concentration 1000.0 nM
[14] = biological target: Receptor tyrosine-protein kinase erbB-3 (Homo sapiens) (UniProt P21860); conditions: Compound concentration 1000.0 nM
[15] = biological target: Cytoplasmic tyrosine-protein kinase BMX (Homo sapiens) (UniProt P51813); conditions: Compound concentration 1000.0 nM
[16] = biological target: Cyclin-dependent kinase 4 (Homo sapiens) (UniProt P11802); conditions: Compound concentration 1000.0 nM
[17] = biological target: NUAK family SNF1-like kinase 2 (Homo sapiens) (UniProt Q9H093); conditions: Compound concentration 1000.0 nM
[18] = biological target: Cyclin-dependent kinase 13 (Homo sapiens) (UniProt Q14004); conditions: Compound concentration 1000.0 nM
[19] = biological target: 1-phosphatidylinositol 3-phosphate 5-kinase (Homo sapiens) (UniProt Q9Y2I7); conditions: Compound concentration 1000.0 nM
[20] = biological target: Mu-type opioid receptor (Homo sapiens) (UniProt P35372); conditions: Compound concentration 10.0 uM
[21] = biological target: Serine/threonine-protein kinase pim-1 (Homo sapiens) (UniProt P11309); conditions: Compound concentration 1000.0 nM
[22] = biological target: RAC-alpha serine/threonine-protein kinase (Homo sapiens) (UniProt P31749); conditions: Compound concentration 1000.0 nM
[23] = biological target: Epithelial discoidin domain-containing receptor 1 (Homo sapiens) (UniProt Q08345); conditions: Compound concentration 1000.0 nM
[24] = tested on: Tyrosine-protein kinase ABL1 (Homo sapiens), P00519 [Y253F]; conditions: Compound concentration 1000.0 nM
[25] = biological target: Tyrosine-protein kinase Fes/Fps (Homo sapiens) (UniProt P07332); conditions: Compound concentration 1000.0 nM
[26] = biological target: Tyrosine-protein kinase TXK (Homo sapiens) (UniProt P42681); conditions: Compound concentration 1000.0 nM
[27] = tested on: Tyrosine-protein kinase ABL1 (Homo sapiens), P00519 [F317I]; conditions: Compound concentration 1000.0 nM
[28] = biological target: Wee1-like protein kinase (Homo sapiens) (UniProt P30291); conditions: Compound concentration 1000.0 nM
[29] = biological target: Angiopoietin-1 receptor (Homo sapiens) (UniProt Q02763); conditions: Compound concentration 1000.0 nM
[30] = biological target: Delta-type opioid receptor (Homo sapiens) (UniProt P41143); conditions: Compound concentration 10.0 uM
[31] = biological target: Serine/threonine-protein kinase N1 (Homo sapiens) (UniProt Q16512); conditions: Compound concentration 1000.0 nM
[32] = biological target: Protein kinase C epsilon type (Homo sapiens) (UniProt Q02156); conditions: Compound concentration 1000.0 nM
[33] = biological target: Homeodomain-interacting protein kinase 3 (Homo sapiens) (UniProt Q9H422); conditions: Compound concentration 1000.0 nM
[34] = biological target: Ribosomal protein S6 kinase alpha-1 (Homo sapiens) (UniProt Q15418); conditions: Compound concentration 1000.0 nM
[35] = biological target: Serine/threonine-protein kinase B-raf (Homo sapiens) (UniProt P15056); conditions: Compound concentration 1000.0 nM
[36] = tested on: Mast/stem cell growth factor receptor Kit (Homo sapiens), P10721 [L576P]; conditions: Compound concentration 1000.0 nM
[37] = biological target: Cyclin-dependent kinase 8 (Homo sapiens) (UniProt P49336); conditions: Compound concentration 1000.0 nM
[38] = biological target: Ankyrin repeat and protein kinase domain-containing protein 1 (Homo sapiens) (UniProt Q8NFD2); conditions: Compound concentration 1000.0 nM
[39] = biological target: Ephrin type-A receptor 7 (Homo sapiens) (UniProt Q15375); conditions: Compound concentration 1000.0 nM
[40] = biological target: Bone morphogenetic protein receptor type-1B (Homo sapiens) (UniProt O00238); conditions: Compound concentration 1000.0 nM
[41] = biological target: MAP kinase-interacting serine/threonine-protein kinase 1 (Homo sapiens) (UniProt Q9BUB5); conditions: Compound concentration 1000.0 nM
[42] = biological target: Phosphorylase b kinase regulatory subunit alpha, liver isoform (Homo sapiens) (UniProt P46019); conditions: Compound concentration 1000.0 nM
[43] = biological target: Mitogen-activated protein kinase 15 (Homo sapiens) (UniProt Q8TD08); conditions: Compound concentration 1000.0 nM
[44] = biological target: Phosphatidylinositol 4,5-bisphosphate 3-kinase catalytic subunit beta isoform (Homo sapiens) (UniProt P42338); conditions: Compound concentration 1000.0 nM
[45] = tested on: Epidermal growth factor receptor (Homo sapiens), P00533 [L858R]; conditions: Compound concentration 1000.0 nM

Mitogen-activated protein kinase 3 (Homo sapiens), sequence (P27361 whole entry): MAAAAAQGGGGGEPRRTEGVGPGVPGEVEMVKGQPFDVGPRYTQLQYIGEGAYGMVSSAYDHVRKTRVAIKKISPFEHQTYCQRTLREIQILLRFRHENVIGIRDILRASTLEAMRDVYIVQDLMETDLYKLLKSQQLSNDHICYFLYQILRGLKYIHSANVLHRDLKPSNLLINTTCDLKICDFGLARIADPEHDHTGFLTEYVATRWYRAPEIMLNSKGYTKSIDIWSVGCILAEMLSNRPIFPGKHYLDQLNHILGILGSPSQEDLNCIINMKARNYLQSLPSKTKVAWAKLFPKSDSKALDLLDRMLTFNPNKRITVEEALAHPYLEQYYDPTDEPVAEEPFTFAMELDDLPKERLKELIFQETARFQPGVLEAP
Epithelial discoidin domain-containing receptor 1 (Homo sapiens), sequence (Q08345 whole entry, the tested form may be a part): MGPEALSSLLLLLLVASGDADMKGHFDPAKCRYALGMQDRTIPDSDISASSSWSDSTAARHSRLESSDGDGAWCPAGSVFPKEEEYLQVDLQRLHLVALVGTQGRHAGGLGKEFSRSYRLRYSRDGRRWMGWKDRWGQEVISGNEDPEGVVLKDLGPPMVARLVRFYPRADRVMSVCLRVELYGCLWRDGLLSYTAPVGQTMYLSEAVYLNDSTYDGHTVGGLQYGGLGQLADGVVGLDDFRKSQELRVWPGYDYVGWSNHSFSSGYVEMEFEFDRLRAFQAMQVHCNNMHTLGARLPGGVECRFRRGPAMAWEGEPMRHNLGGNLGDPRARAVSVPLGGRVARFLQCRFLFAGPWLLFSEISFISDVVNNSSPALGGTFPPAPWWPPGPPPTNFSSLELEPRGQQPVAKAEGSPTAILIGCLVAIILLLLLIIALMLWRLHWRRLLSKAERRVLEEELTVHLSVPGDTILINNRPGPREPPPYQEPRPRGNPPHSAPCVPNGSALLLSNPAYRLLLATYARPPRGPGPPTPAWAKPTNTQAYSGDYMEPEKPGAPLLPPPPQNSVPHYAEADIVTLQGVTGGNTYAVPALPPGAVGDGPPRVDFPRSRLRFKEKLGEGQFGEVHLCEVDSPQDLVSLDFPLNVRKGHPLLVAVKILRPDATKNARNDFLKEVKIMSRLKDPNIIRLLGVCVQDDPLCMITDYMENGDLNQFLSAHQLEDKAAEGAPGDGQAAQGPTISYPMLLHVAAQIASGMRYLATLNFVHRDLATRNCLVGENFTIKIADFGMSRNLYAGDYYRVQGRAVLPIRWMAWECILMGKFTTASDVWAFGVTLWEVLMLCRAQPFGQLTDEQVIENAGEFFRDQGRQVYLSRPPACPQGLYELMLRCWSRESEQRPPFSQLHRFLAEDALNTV
Cyclin-dependent kinase 13 (Homo sapiens), sequence (Q14004 whole entry, looked up): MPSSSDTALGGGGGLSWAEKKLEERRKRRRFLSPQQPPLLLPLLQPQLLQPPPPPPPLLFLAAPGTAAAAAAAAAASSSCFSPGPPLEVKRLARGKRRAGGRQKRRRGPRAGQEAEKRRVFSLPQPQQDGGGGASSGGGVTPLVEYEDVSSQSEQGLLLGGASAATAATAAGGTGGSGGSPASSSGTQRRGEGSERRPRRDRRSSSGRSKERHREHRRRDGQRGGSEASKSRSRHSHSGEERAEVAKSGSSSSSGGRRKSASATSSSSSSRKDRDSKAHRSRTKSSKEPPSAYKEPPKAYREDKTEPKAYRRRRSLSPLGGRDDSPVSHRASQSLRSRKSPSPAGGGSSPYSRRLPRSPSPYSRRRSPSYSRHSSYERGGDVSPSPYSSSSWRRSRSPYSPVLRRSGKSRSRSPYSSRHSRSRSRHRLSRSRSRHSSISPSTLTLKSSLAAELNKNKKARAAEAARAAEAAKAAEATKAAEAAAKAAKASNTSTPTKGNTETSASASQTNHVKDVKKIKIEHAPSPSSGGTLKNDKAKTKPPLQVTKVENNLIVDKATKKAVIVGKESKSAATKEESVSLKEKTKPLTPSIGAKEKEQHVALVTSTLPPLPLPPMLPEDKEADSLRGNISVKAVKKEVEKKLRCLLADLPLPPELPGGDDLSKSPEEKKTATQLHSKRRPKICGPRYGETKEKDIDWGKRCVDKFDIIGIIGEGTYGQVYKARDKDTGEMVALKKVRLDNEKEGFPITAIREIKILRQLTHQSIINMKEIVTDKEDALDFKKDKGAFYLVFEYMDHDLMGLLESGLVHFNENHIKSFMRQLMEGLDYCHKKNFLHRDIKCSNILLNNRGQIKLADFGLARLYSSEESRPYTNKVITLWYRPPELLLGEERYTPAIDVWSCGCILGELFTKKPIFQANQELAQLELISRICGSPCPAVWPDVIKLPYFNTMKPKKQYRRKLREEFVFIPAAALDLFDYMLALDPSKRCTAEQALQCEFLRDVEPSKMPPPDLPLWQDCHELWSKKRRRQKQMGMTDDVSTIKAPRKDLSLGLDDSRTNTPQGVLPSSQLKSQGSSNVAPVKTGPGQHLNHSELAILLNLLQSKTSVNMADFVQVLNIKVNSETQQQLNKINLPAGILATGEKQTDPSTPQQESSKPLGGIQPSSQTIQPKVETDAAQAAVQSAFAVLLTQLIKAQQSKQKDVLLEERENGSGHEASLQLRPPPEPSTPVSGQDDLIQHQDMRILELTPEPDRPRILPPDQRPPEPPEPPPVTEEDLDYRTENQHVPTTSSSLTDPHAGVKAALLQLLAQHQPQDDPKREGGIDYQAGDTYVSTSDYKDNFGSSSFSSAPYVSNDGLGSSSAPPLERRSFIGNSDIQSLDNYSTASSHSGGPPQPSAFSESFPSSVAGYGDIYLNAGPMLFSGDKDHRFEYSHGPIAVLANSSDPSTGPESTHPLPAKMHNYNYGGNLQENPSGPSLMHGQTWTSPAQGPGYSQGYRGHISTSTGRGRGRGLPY
Delta-type opioid receptor (Homo sapiens), sequence (P41143 whole entry): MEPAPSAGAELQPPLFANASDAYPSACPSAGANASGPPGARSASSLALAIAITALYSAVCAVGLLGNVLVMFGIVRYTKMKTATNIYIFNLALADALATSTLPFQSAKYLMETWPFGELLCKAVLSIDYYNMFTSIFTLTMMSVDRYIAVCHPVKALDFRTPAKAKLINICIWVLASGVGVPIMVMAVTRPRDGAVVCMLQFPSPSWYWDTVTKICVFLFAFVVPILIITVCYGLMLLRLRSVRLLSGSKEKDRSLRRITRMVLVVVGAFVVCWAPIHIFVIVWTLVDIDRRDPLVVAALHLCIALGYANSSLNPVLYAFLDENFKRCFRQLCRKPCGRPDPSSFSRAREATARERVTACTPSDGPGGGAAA
MAP kinase-activated protein kinase 2 (Homo sapiens), sequence (P49137 whole entry, looked up): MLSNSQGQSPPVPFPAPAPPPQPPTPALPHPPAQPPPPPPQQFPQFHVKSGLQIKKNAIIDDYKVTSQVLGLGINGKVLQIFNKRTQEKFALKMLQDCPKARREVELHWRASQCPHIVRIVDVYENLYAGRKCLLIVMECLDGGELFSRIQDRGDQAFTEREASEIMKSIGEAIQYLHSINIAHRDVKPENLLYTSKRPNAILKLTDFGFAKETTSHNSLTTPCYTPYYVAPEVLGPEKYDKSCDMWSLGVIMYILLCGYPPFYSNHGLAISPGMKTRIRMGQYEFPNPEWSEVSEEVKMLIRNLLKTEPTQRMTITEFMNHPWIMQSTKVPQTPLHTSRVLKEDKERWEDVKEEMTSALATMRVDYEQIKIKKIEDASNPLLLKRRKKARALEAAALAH
Inhibitor of nuclear factor kappa-B kinase subunit alpha (Homo sapiens), sequence (O15111 whole entry): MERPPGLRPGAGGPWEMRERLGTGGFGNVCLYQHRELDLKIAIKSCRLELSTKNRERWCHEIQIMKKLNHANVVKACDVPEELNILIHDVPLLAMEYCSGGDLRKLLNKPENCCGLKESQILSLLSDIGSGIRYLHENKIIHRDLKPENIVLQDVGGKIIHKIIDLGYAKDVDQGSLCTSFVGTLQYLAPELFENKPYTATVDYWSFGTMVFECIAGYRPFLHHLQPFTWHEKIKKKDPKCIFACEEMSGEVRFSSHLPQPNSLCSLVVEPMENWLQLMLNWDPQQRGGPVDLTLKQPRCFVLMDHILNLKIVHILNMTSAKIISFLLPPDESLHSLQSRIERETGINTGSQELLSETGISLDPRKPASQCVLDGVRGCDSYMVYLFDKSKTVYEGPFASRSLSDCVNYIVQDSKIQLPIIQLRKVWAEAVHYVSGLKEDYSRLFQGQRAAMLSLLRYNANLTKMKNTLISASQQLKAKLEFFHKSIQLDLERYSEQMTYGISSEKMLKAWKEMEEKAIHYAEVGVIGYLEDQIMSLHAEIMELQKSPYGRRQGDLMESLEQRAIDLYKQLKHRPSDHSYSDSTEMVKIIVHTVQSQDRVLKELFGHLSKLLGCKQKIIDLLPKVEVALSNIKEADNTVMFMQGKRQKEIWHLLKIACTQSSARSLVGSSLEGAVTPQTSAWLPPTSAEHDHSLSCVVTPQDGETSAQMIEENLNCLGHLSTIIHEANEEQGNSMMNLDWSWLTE
Phosphatidylinositol 4-phosphate 5-kinase type-1 alpha (Homo sapiens), sequence (Q99755 whole entry): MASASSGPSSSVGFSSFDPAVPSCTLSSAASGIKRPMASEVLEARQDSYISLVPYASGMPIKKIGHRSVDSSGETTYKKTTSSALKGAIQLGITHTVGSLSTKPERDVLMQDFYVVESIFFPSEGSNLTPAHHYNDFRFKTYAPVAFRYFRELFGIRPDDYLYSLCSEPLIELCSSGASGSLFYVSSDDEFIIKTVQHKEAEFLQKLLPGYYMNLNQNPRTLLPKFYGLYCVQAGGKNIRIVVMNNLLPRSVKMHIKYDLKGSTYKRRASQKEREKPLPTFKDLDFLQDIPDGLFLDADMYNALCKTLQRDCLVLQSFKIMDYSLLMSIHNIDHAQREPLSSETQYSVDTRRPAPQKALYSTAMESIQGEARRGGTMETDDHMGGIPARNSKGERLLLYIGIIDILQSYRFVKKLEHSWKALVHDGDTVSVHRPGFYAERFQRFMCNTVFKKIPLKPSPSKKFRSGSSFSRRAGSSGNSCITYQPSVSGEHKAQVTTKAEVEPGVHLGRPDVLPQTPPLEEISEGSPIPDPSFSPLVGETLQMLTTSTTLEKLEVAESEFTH

SMILES: CC(=O)C1=C(C)N(c2cccc(C(F)(F)F)c2)C(=O)N[C@@H]1c1ccc(C#N)nc1 [BAY-678]
- residual activity [1]: 83.8%
- residual activity [2]: 100%
- residual activity [3]: 97.1%
- residual activity [4]: 93.8%
- residual activity [5]: 100%
- residual activity [6]: 89.9%
- residual activity [7]: 100%
- residual activity [8]: 100%
- residual activity [9]: 75.8%
- residual activity [10]: 77.5%
- residual activity [11]: 82.6%
- residual activity [12]: 91.2%
- residual activity [13]: 45.5%
- residual activity [14]: 100%
- residual activity [15]: 97.4%
- residual activity [16]: 100%
- residual activity [17]: 100%
- residual activity [18]: 100%
- residual activity [19]: 90%
- inhibition [20]: -5.41%
- residual activity [21]: 100%
- residual activity [22]: 90.4%
- residual activity [23]: 71.5%
- residual activity [24]: 100%
- residual activity [25]: 84.1%
- residual activity [26]: 100%
- residual activity [27]: 100%
- residual activity [28]: 100%
- residual activity [29]: 100%
- inhibition [30]: -6.02%
- residual activity [31]: 71.1%
- residual activity [32]: 73.9%
- residual activity [33]: 100%
- residual activity [34]: 100%
- residual activity [35]: 78.5%
- residual activity [36]: 100%
- residual activity [37]: 65.3%
- residual activity [38]: 100%
- residual activity [39]: 100%
- residual activity [40]: 74.2%
- residual activity [41]: 100%
- residual activity [42]: 80.8%
- residual activity [43]: 100%
- residual activity [44]: 100%
- residual activity [45]: 80.8%
